Data from ChEMBL document CHEMBL1159150, “Synthesis and anticonvulsant properties of BW A78U structurally-related compounds” (1995).
The source made the active and inactive calls. The rule behind the calls is not given here.

What was measured:
Rattus norvegicus [1] = assay: Percent of rats protected from tonic seizure by ip administration at a dose of 40 mg/kg for anticonvulsant activity; assay type: functional; settings: route intraperitoneal
Rattus norvegicus [2] = assay: Percent of rats protected from tonic seizure by ip administration at a dose of 10 mg/kg for anticonvulsant activity; assay type: functional; settings: route intraperitoneal
Rattus norvegicus [3] = assay: Anticonvulsant activity for tonic seizure by ip administration at a dose of 10 mg/kg; Inactive; assay type: functional, organism-based; set-up: dose 10 mg/kg
Rattus norvegicus [4] = assay: Anticonvulsant activity for tonic seizure by ip administration at a dose of 10 mg/kg; assay type: functional; settings: route intraperitoneal, read-out: ID50 (the source's name)

| SMILES | Protection (Rattus norvegicus [1]) [%] | Protection (Rattus norvegicus [2]) [%] | ID50 (Rattus norvegicus [3]) | ED50 (Rattus norvegicus [4]) [mg/kg] |
| --- | --- | --- | --- | --- |
| CNc1cc(N(Cc2ccccc2)C(C)=O)ncn1 | 55 | 20 | – | – |
| CNc1ncnc2c1cnn2Cc1ccccc1F | 65 | 0 | inactive | – |
| CNc1nccn2c(Cc3ccccc3)nnc12 | 100 | 65 | – | – |
| CNc1ncnc2c1ncn2Cc1ccccc1F [BW-A78U] | – | 100 | – | 4 |
| NC(=O)c1cc(Cc2ccccc2)ccn1 | 100 | 50 | – | – |
| CNC(=O)c1cn(Cc2ccccc2)cn1 | 90 | 20 | – | – |
| CNc1ncn(Cc2ccccc2F)c2ncnc1-2 | 100 | 50 | – | 10 |
| Cc1nc(C(N)=O)c(CCc2ccccc2)s1 | 65 | 30 | – | – |
| Cc1nc(CCc2ccccc2)c(C(N)=O)nc1C | 30 | 0 | – | – |
